From patent US10934309B2, “Tricyclic quinone derivative” (Boston Biomedical, Inc., priority 2014, dated 2021)

Columns and labels:
Format in all cases: cell-based, human
FaDu cells [1] = assay: Inhibition assay of cancer cell sphere-forming ability (Test Example 2), FaDu; conditions: Homo sapiens, FaDu, 96 h, FaDu cells, Ultra-Low Attachment plate, serum-free DMEM/F12 with B27, EGF, bFGF, insulin, 4 days, Cell Titer-Glo; read-out: IC50 (μM) FaDu; concentration for 50% inhibition of cell proliferation (Sphere IC50 value)
Method in brief: (§1)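 Human tumour lines (colon HCT-116, HT-29; hypopharynx FaDu) seeded on ultra-low-attachment plates to form spheres. Compound added at 0.1% final DMSO, cultured 4 days.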

cancer cells [2] = assay: Inhibition test of cancer cell sphere-forming ability, overall statement on Table 2; conditions: summary of Table 2
Description: HCT-116 cells (derived from human colon adenocarcinoma), HT-29 cells (derived from human colon cancer), FaDu cells (derived from human hypopharynx cancer) were obtained from American Type Culture Collection (ATCC). HCT-116 cells and HT-29 cells were cultured using McCoy's 5a medium containing 10% fetal bovine serum (FBS) and 1% penicillin/streptomycin, and FaDu cells were cultured using MEM medium containing 10% FBS, 1% non-essential amino acid, 1% sodium pyruvate, and 1% penicillin/streptomycin, respectively, at 37° C. in the presence of 5% CO2. HCT-116 cells, HT-29 cells, and FaDu cells were seeded onto 384 Well Black Clear Bottom Ultra-Low Attachment Microplate (Corning Cat. No. 3827) using DMEM/F12 medium containing 2% B27 supplement (GIBCO), 20 ng/mL epidermal growth factor (EGF) (peprotech), 10 ng/mL basic fibroblast growth factor (bFGF) (peprotech), 5 μg/mL insulin (Sigma), and 1% penicillin/streptomycin to be 350-800 cells/well. A test substance was added so that the final concentration of DMSO is 0.1%, and then cultured for 4 days. The number of living cells was then counted using Cell Titer-Glo (registered trademark) Luminescent Cell Viability Assay (Promega) to calculate the concentration for 50% inhibition of cell proliferation of respective test substances (Sphere IC50 value; μM).

HCT-116 cells [3] = assay: Inhibition assay of cancer cell sphere-forming ability (Test Example 2), HCT-116; conditions: Homo sapiens, HCT-116, 96 h, HCT-116 cells, Ultra-Low Attachment plate, serum-free DMEM/F12 with B27, EGF, bFGF, insulin, 4 days, Cell Titer-Glo; read-out: IC50 (μM) HCT; concentration for 50% inhibition of cell proliferation (Sphere IC50 value)
Method in brief: as §1

FaDu cells [4] = assay: Proliferation inhibition assay of cancer cells (Test Example 1), FaDu; conditions: Homo sapiens, FaDu, 96 h, FaDu cells, cultured for 4 days, Cell Titer-Glo; read-out: IC50 (μM) FaDu; concentration for 50% inhibition of cell proliferation (Bulk IC50 value)
Method in brief: (§2)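 Human HCT-116 and HT-29 colon and FaDu hypopharyngeal cancer lines seeded at 300-600 cells/well in 384-well format, then given test substance at 0.1% final DMSO. Growth measured after 4 days of culture.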

HCT-116 cells [5] = assay: Proliferation inhibition assay of cancer cells (Test Example 1), HCT-116; conditions: Homo sapiens, HCT-116, 96 h, HCT-116 cells, cultured for 4 days, Cell Titer-Glo; read-out: IC50 (μM) HCT; concentration for 50% inhibition of cell proliferation (Bulk IC50 value)
Method in brief: as §2

HT-29 cells [6] = assay: Proliferation inhibition assay of cancer cells (Test Example 1), HT-29; conditions: Homo sapiens, HT-29, 96 h, HT-29 cells, cultured for 4 days, Cell Titer-Glo; read-out: IC50 (μM) HT; concentration for 50% inhibition of cell proliferation (Bulk IC50 value)
Method in brief: as §2

cancer cells [7] = assay: Proliferation inhibition test of cancer cells, overall statement on Table 1; conditions: summary of Table 1
Description: HCT-116 cells (derived from human colon adenocarcinoma), HT-29 cells (derived from human colon cancer), and FaDu cells (derived from human hypopharynx cancer) were obtained from American Type Culture Collection (ATCC). HCT-116 cells and HT-29 cells were cultured using McCoy's 5a medium containing 10% fetal bovine serum (FBS) and 1% penicillin/streptomycin, and FaDu cells were cultured using MEM medium containing 10% FBS, 1% non-essential amino acid, 1% sodium pyruvate, and 1% penicillin/streptomycin, respectively, at 37° C. in the presence of 5% CO2. After cells were seeded at 300-600 cells/well onto black μClear-plate 384 well (Greiner bio-one Cat. No. 781091), a test substance was added such that the final concentration of DMSO is 0.1%, and cultured for 4 days. The number of living cells was then counted using Cell Titer-Glo (Registered trademark) Luminescent Cell Viability Assay (Promega) to calculate a concentration for 50% inhibition of cell proliferation of respective test substances (Bulk IC50 value; μM).

HT-29 cells [8] = assay: Inhibition assay of cancer cell sphere-forming ability (Test Example 2), HT-29; conditions: Homo sapiens, HT-29, 96 h, HT-29 cells, Ultra-Low Attachment plate, serum-free DMEM/F12 with B27, EGF, bFGF, insulin, 4 days, Cell Titer-Glo; read-out: IC50 (μM) HT; concentration for 50% inhibition of cell proliferation (Sphere IC50 value)
Method in brief: as §1

Row | IC50 (FaDu cells [1]) | IC50 (HCT-116 cells [3]) | IC50 (FaDu cells [4]) | IC50 (HCT-116 cells [5]) | IC50 (HT-29 cells [6]) | IC50 (HT-29 cells [8]) | SMILES | effect to inhibit cancer cell sphere-forming ability (in words) (cancer cells [2]) | effect on the inhibition of the proliferation of cancer cells (in words) (cancer cells [7])
1 | < 0.01 µM | 0.06 µM | < 0.01 µM | 0.05 µM | 0.09 µM | 0.06 µM | O=C1c2cnccc2C(=O)c2sc(C(=O)N3CCOCC3)cc21 [Example 20, 2-(morpholin-4-ylcarbonyl)thieno[2,3-g]isoquinoline-4,9-dione] | particularly strong effect | particularly strong effect
2 | < 0.01 µM | 0.04 µM | < 0.01 µM | 0.05 µM | 0.18 µM | 0.03 µM | CC(=O)c1cc2c(s1)C(=O)c1ccncc1C2=O [Example 12, 2-acetylthieno[2,3-g]isoquinoline-4,9-dione] | particularly strong effect | particularly strong effect
3 | < 0.01 µM | 0.05 µM | < 0.01 µM | 0.04 µM | 0.32 µM | 0.05 µM | N#Cc1cc2c(s1)C(=O)c1ccncc1C2=O [Example 29, 4,9-dioxo-4,9-dihydrothieno[2,3-g]isoquinoline-2-carbonitrile] | particularly strong effect | particularly strong effect
